Four molecules from patent publication US20110098296A1, “Thiazole And Oxazole Kinase Inhibitors” (priority 2007, published 2011) can be followed below.

For one assay, the target named is T1, EGFR (Homo sapiens, UniProt P00533).
T1 construct: made in house; host or cells: baculovirus expression system
In words: EGFR substrate phosphorylation assay (HTRF). The format is biochemical. The note with it: Method (A): Enzyme Mix incubated with compound at 20° C. for 1 hr, reaction started by adding Substrate Mix. The method, boiled down:
(§1)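 Baculovirus-expressed kinase (0.8 nM EGFR or 10 nM ErbB2 in enzyme mix) with Peptide C 0.8 μM and ATP 20 μM (substrate-mix levels), MOPS pH 7.5, MnCl2; 90 min, 20 °C, HTRF anti-phosphotyrosine. Method A adds 1 h enzyme–compound preincubation; B none. pIC50, final compound 0.00027–47.6 μM.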
In general terms: In TR-FRET formats the signal depends on donor and acceptor labels being close together.

The subject of assay [1] is HN5 tumor cells. In words: Method A: Methylene Blue Growth Inhibition Assay, HN5. It is filed as cell-based. The settings on record: Homo sapiens, 72 h, 3 days. Here is the method:
(§2) Human breast (BT474) and head and neck (HN5) tumor cells were cultured in low glucose DMEM (Life Technologies 12320-032) containing 10% fetal bovine serum (FBS). Human colon tumor cells (Colo205) were cultured in DMEM (Invitrogen, 10564) containing 10% FBS. The SV40 transformed human mammary epithelial cell line HB4a was transfected with either human H-ras cDNA (HB4a r4.2) or the human c-ErbB2 cDNA (HB4a c5.2). The HB4a clones were cultured in RPMI containing 10% FBS, insulin (5 g/mL), hydrocortisone (5 g/mL), supplemented with the selection agent hygromycin B (50 g/mL). All lines were grown in a humidified incubator at 37° C. in 95% air, 5% CO2. Cells were harvested using trypsin/EDTA, counted using a haemocytometer, and plated in 100 μL of the appropriate media, at the following densities, in a 96-well tissue culture plate (Falcon 3075): BT474 10,000 cells/well, HN5 3,000 cells/well. The next day, compounds were diluted in DMEM containing […] gentamicin, at twice the final required concentration, from 10 mM stock solutions in DMSO. 100 μl/well of these dilutions were added to the 100 μL of media currently on the cell plates. Medium containing 0.6% DMSO was added to control wells. Compounds diluted in DMEM were added to all cell lines. The final concentration of DMSO in all wells was 0.3%. Cells were returned to the incubator (37° C., […]) for 3 days. Medium was then removed by aspiration. Cell biomass was estimated by staining cells with 90 μL/well methylene blue (Sigma M9140, 0.5% in 1:1 EtOH:H2O), and incubation at room temperature for at least 30 minutes. Stain was removed, and the plates rinsed by immersion in deionized H2O and air-dried. To release stain from the cells 100 μL of solubilization solution were added (1% N-lauroyl sarcosine, sodium salt, Sigma L5125, in PBS), and plates were shaken gently for about 30 minutes. Optical density at 620 nm was measured on a microplate reader. Percent inhibition of cell growth was calculated relative to vehicle-treated control wells. Concentration of compound that inhibits 50% of control cell growth (IC50) was interpolated using nonlinear regression (Levenberg-Marquardt) and the equation,
(§3) y=Vmax*(1−(x/(K+x)))+Y2, where “K” was equal to the IC50.

For the next assay, the target named is T2, ErbB2 (Homo sapiens, UniProt P04626).
T2 construct: made in house; host or cells: baculovirus expression system
In words: ErbB-2 substrate phosphorylation assay (HTRF). The format is biochemical. The note with it: Method (A): Enzyme Mix incubated with compound at 20° C. for 1 hr, reaction started by adding Substrate Mix. Put shortly: as §1

The next assay concerns the target B-Raf (Homo sapiens, UniProt P15056). In words: B-Raf Accelerated MEK ATPase assay (BRAMA). The format is biochemical. The note with it: Method (A): BRAMA, kinetic read. Here is the method: Compounds of the present invention were tested for B-Raf protein serine kinase inhibitory activity in a B-Raf Accelerated MEK ATPase assay (BRAMA). The BRAMA assay is a high sensitivity assay which measures an intrinsic MEK-mediated ATP hydrolysis uncoupled from downstream ERK phosphorylation by coupling the formation of ADP to NADH oxidation through the enzymes pyruvate kinase and lactate dehydrogenase. When ADP production is initiated by addition of catalytic amounts of an activated Raf enzyme and non-phosphorylated MEK, one observes robust ADP production concomitant with Raf-mediated phosphorylation of MEK.
Method A: Specific details of the assay are disclosed in: C. Rominger, M. Schaber, E. May. Assay for B-Raf Activity Based on Intrinsic MEK ATPase Activity. Statutory Invention Registration Ser. No. 11/084,993 (March, 2005). Method B: The method is the same as method A, but includes the following changes: 1) the assay was performed with a final MEK concentration of 150 nM and 2) the assay was read as single end point instead of a kinetic read.

Assay [2] concerns Colo205 tumor cells. In words: Method A: Methylene Blue Growth Inhibition Assay, Colo205. The format is cell-based. The note with it: Homo sapiens, COLO 205, 72 h, 3 days. As to the method:
as §2, §3

Assay [3] relates to BT474 tumor cells. In words: Method A: Methylene Blue Growth Inhibition Assay, BT474. The format is cell-based. The note with it: Homo sapiens, BT-474, 72 h, 3 days. Here is the method: as §2, §3
The test system of a further assay is SK-MEL-28 tumor cells. In words: Method C: Cell Growth Inhibition Assay (CellTiter-Glo), SK-MEL-28. It is filed as cell-based. The settings on record: Homo sapiens, SK-MEL-28, 72 h, 3 days, 4-parameter fit. Put shortly: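 Growth inhibition is expressed as the concentration giving 50% inhibition relative to vehicle controls, derived from a 4-parameter fit. Tumor cells plated at 500 per well were exposed for 3 days to compound (0.2% DMSO) before total ATP was quantified by CellTiter-Glo.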
On the technique in general: In ATP-based viability assays light output follows the ATP content of the culture.

Assay [4] concerns Colo205 tumor cells. The experiment in a line: Method C: Cell Growth Inhibition Assay (CellTiter-Glo), Colo205. The format is cell-based. The settings on record: Homo sapiens, COLO 205, 72 h, 3 days, 4-parameter fit. Put shortly:
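Cells plated at 500 cells/well, dosed next day with 10-point 1:3 dilution series (0.2% final DMSO) and grown 3 days at 37 °C, 5% CO2. CellTiter-Glo luminescence (total ATP) served as cell-number surrogate; inhibition relative to DMSO controls, IC50 interpolated by 4-parameter fit.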

The test system of assay [5] is BT474 tumor cells. The experiment in a line: Method B: CellTiter-Glo Growth Inhibition Assay, BT474. The format is cell-based. The note with it: Homo sapiens, BT-474, 72 h, 3 days. As to the method:
(§4) Human breast tumor cells (BT474) were cultured in RPMI, (Invitrogen, 22400) containing 10% fetal bovine serum (FBS). Human head and neck tumor cells (HN5) were cultured in low glucose DMEM (Invitrogen, 12320) containing 10% FBS. Human colon tumor cells (Colo205) were cultured in DMEM (Invitrogen, 10564) containing 10% FBS. Human melanoma cancer cells (SK-MEL-28) were incubated in DMEM (Invitrogen). All cell lines were maintained at 37° C. in a humidified 5% CO2, 95% air incubator. Cells were harvested using trypsin/EDTA, counted using a haemocytometer, and plated in 30 μL of the appropriate media described above, at the following densities, in a half-area, black-walled, 96-well tissue culture plate (Corning 3882): BT474 3,000 cells/well, HN5 500 cells/well, Colo205 3,000 cells/well, and SK-MEL-28 500 cells/well). The next day, compounds were diluted in DMEM containing […] gentamicin, from 10 mM stock solutions in DMSO. 30 μL/well of these dilutions were added to the 30 μL/well of media currently on the cell plates. Medium containing 0.6% DMSO was added to control wells. The final concentration of DMSO in all wells was 0.3%. Cells were incubated at 37° C., 5% CO2 for 3 days. Cell biomass was estimated using CellTiter-Glo® reagent (Promega G7571). Briefly, plates were removed from the incubator and allowed to equilibrate to rt for 30 minutes. 25-60 μL of CellTiter-Glo® reagent were added to each well of the treated cells and plates were shaken on an orbital plate shaker for 2 mins. Plates were incubated without shaking for 30 more mins and read in a luminometer with an integration time of 0.5 seconds per well. Percent inhibition of cell growth was calculated relative to vehicle-treated control wells. Concentration of compound that inhibits 50% of vehicle control cell growth (IC50) was interpolated using nonlinear regression (Levenberg-Marquardt) and the equation, y=V max*(1−(x/(K+x)))+Y2, where “K” was equal to the IC50.

The subject of assay [6] is Colo205 tumor cells. The experiment in a line: Method B: CellTiter-Glo Growth Inhibition Assay, Colo205. It is filed as cell-based. The settings on record: Homo sapiens, COLO 205, 72 h, 3 days. Here is the method:
as §4

Assay [7] deals with HN5 tumor cells. In words: Method B: CellTiter-Glo Growth Inhibition Assay, HN5. The format is cell-based. The note with it: Homo sapiens, 72 h, 3 days. As to the method: as §4

Each structure is given as a SMILES string.

T2 sequence (P04626 23-1255): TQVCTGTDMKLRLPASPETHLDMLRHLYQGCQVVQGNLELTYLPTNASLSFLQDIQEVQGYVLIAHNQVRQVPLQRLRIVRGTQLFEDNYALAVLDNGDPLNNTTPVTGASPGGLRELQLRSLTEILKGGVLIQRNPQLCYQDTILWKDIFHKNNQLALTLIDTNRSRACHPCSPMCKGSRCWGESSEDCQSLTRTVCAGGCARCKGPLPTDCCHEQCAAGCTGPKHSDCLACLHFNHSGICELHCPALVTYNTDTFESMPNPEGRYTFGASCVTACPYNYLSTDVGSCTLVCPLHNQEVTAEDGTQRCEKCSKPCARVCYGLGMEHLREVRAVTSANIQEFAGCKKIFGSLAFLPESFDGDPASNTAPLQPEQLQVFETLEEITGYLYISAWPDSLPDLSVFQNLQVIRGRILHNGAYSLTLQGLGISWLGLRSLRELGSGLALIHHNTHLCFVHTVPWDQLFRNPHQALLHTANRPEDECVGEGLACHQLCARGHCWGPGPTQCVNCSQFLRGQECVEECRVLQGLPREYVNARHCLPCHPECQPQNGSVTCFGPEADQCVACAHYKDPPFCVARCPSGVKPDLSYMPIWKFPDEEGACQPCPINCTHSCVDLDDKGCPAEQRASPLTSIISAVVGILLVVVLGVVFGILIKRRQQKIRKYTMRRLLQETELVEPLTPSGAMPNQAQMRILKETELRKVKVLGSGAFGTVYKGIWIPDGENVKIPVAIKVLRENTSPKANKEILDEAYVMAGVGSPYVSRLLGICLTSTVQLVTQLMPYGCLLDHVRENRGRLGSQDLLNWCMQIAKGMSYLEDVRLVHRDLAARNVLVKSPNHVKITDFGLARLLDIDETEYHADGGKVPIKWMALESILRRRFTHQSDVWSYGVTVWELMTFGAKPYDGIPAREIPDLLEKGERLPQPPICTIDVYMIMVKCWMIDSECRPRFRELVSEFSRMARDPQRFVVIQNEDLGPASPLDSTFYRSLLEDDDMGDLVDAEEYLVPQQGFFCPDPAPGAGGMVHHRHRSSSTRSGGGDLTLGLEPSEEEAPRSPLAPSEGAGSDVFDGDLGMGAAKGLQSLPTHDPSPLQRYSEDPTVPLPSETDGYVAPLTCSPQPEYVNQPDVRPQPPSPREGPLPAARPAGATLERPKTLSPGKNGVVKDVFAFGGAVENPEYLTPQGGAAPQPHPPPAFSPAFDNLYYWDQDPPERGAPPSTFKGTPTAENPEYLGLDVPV
Sequence of B-Raf (P15056 whole entry): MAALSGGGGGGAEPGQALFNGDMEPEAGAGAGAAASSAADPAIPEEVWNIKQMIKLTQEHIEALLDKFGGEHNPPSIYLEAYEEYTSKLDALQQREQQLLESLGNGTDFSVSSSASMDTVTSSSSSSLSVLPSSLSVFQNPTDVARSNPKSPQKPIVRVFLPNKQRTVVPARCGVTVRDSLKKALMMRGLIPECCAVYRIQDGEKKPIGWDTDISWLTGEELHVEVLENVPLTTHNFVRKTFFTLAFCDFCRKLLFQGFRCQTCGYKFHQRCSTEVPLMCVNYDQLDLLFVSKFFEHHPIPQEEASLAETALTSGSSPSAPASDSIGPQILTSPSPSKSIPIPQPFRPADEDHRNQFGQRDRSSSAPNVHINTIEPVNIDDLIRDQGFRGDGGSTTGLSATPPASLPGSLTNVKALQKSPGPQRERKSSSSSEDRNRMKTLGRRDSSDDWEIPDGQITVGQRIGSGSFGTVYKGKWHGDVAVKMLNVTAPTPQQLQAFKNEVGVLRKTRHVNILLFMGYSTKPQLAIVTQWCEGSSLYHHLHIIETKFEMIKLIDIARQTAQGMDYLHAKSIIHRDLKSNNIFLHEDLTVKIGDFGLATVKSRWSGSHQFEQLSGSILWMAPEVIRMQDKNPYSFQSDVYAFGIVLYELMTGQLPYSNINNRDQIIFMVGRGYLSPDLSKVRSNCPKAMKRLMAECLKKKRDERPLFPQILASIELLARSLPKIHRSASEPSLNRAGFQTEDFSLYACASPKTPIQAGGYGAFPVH
T1 sequence (P00533 25-1210): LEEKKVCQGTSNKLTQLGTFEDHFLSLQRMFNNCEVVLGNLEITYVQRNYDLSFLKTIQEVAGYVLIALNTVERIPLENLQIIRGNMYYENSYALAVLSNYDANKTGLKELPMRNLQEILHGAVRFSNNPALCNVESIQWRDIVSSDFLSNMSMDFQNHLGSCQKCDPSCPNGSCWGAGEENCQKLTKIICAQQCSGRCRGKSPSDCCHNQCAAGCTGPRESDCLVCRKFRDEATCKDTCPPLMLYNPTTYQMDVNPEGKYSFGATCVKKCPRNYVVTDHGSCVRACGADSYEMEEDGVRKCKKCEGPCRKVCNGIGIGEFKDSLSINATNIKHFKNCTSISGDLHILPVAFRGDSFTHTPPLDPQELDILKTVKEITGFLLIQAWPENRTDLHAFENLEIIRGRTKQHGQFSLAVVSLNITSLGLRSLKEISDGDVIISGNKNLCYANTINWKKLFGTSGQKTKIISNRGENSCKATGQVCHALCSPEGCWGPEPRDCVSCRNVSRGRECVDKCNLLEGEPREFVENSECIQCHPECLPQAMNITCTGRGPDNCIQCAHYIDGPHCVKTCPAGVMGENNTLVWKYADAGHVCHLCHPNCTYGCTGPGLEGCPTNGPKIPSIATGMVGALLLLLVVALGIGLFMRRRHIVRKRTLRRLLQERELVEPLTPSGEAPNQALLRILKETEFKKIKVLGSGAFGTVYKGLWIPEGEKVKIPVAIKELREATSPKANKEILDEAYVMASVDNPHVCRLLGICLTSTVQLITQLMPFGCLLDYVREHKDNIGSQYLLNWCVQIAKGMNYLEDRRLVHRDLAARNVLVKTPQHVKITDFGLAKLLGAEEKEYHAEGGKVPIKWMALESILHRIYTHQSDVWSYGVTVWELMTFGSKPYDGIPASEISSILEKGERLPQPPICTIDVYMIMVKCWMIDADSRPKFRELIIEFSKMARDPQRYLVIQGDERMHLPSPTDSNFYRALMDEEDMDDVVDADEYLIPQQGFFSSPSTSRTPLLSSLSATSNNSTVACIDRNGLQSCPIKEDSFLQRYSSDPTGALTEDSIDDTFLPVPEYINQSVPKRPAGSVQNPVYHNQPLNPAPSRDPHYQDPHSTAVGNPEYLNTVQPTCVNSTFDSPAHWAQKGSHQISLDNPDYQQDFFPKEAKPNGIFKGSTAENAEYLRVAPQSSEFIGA

Broadly, the IC50 is the point on the concentration scale where inhibition reaches its midpoint. For the molecule `Nc1nc(-c2cccc(OCc3ccccc3)c2)c(-c2ccnc(Nc3cccc(-c4cnco4)c3)n2)s1` [Example 69, 4-(2-Amino-4-{3-[(phenylmethyl)oxy]phenyl}-1,3-thiazol-5-yl)-N-[3-(1,3-oxazol-5-yl)phenyl]-2-pyrimidinamine], the IC50 on EGFR was below 100 nM; in the assay on HN5 tumor cells [1] it was 100 to 1000 nM; on ErbB2, below 100 nM; against B-Raf it was above 1000 nM; with Colo205 tumor cells [2], above 1000 nM; in the assay with BT474 tumor cells [3] it was 100 to 1000 nM.
Turning to `Cc1cc(Nc2nccc(-c3sc(N(C)C)nc3-c3cccc(NC(=O)c4c(F)cccc4F)c3)n2)ccc1CC1CCNCC1` [Example 42, N-{3-[2-(Dimethylamino)-5-(2-{[3-methyl-4-(4-piperidinylmethyl)phenyl]amino}-4-pyrimidinyl)-1,3-thiazol-4-yl]phenyl}-2,6-difluorobenzamide], the IC50 in the assay with SK-MEL-28 tumor cells was above 1000 nM; at EGFR it was below 100 nM; on ErbB2, below 100 nM; against B-Raf, 100 to 1000 nM; in the assay with Colo205 tumor cells [4], above 1000 nM.
For the molecule `COCCOc1ccc(Nc2nccc(-c3sc(N)nc3-c3cccc(NC(=O)c4cccn4C)c3)n2)cc1F` [Example 66, N-[3-(2-Amino-5-{2-[(3-fluoro-4-{[2-(methyloxy)ethyl]oxy}phenyl)amino]-4-pyrimidinyl}-1,3-thiazol-4-yl)phenyl]-1-methyl-1H-pyrrole-2-carboxamide], the IC50 on EGFR is below 100 nM; in the assay with HN5 tumor cells [1], below 100 nM; at ErbB2 it was below 100 nM; against B-Raf it was above 1000 nM; in the assay on Colo205 tumor cells [2] it was 100 to 1000 nM; in the assay with BT474 tumor cells [3], below 100 nM.
On to `Cc1cc(-c2sc(N)nc2-c2cccc(NC(=O)c3c(F)cccc3F)c2)nc(Nc2cccc(OCCN(C)C)c2)n1` [Example 49, N-[3-(2-Amino-5-{2-[(3-{[2-(dimethylamino)ethyl]oxy}phenyl)amino]-6-methyl-4-pyrimidinyl}-1,3-thiazol-4-yl)phenyl]-2,6-difluorobenzamide], for which the IC50 in the assay on BT474 tumor cells [5] is 100 to 1000 nM; at EGFR, below 100 nM; in the assay with Colo205 tumor cells [6], above 1000 nM; in the assay with HN5 tumor cells [7], 100 to 1000 nM; on ErbB2 it was 100 to 1000 nM; against B-Raf it was above 1000 nM.
